In patent publication US20100119483A1, “PEPTIDE VIRAL ENTRY INHIBITORS” (Schering Corporation, priority 2004, published 2010):
Ends that are not written are not given here.

How the values were obtained:
[1] = tested on: amphotropic murine leukemia virus; experiment: AMLV pseudotyped virus entry counter-screen, same infection protocol; format: cell-based; settings: peptide library screen; cell entry inhibition vs uninhibited control
Summary of the method: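 Huh7 hepatoma cells pre-incubated with peptide 1 h at 37 °C, then infected with AMLV pseudotyped virus and cultured 72 h at 37 °C, 5% CO2 before luciferase read-out. Peptides screened at 100 ug/ml, then 10-point 3-fold titrations from 100 ug/ml.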

HCV pseudoparticles = experiment: HCV pseudoparticle (HCVpp) entry assay in Huh7 hepatoma cells, luciferase readout; format: cell-based, hepatitis C virus; settings: peptide library screen, first screened at 100 ug/ml; cell entry inhibition vs uninhibited control
Summary of the method: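 Huh7 cells were pre-treated with peptide for 1 h at 37 °C before exposure to HCV E1/E2-pseudotyped HIV luciferase particles made in 293T cells, followed by 72 h culture and luciferase readout. Peptides were tested at 10 points, 3-fold, from 100 ug/ml; particles lacking envelope served as non-specific entry control.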

Substance: K-T-L-T-C-P-T-D-C-F-R-K-H-P-E-A [SEQ ID NO: 58]
- AMLVpp % inh [1]: 13%
- HCVpp % inh (HCV pseudoparticles): 50%

Substance: N-R-T-A-L-N-C-N-D-S-L-N-T-G-F-L (NRTALNCNDSLNTGFL; not fully specified (C-terminus); printed as N-R-T-A-L-N-C-N-D-S-L-N-T-G-F-L) [SEQ ID NO: 36]
- AMLVpp % inh [1]: 18%
- HCVpp % inh (HCV pseudoparticles): 23%

Substance: P-R-C-L-V-H-Y-P-Y-R-L-W-H-Y-P-C (PRCLVHYPYRLWHYPC; HCV peptide) [SEQ ID NO: 62]
- AMLVpp % inh [1]: −42%
- HCVpp % inh (HCV pseudoparticles): 10%

Substance: L-L-L-A-D-A-R-V-C-A-C-L-W-M-M-L [SEQ ID NO: 79]
- AMLVpp % inh [1]: 16%
- HCVpp % inh (HCV pseudoparticles): 77%

Substance: N-W-S-P-T-A-A-L-V-V-S-Q-L-L-R-I [SEQ ID NO: 22]
- AMLVpp % inh [1]: −11%
- HCVpp % inh (HCV pseudoparticles): 54%

Substance: T-C-G-G-P-P-C-N-I-G-G-I-C-N-K-T [SEQ ID NO: 56]
- AMLVpp % inh [1]: 22%
- HCVpp % inh (HCV pseudoparticles): 53%
